These results are taken from PubChem BioAssay AID623935 (Southern Research Specialized Biocontainment Screening …, 2012).

In this assay the test system is Chikungunya virus infected cells, antiviral inhibition. The assay can be described thus: Chikungunya virus antiviral inhibition, dose response, cell-based, secondary assay (AID 623935).

Active and inactive are the calls of the source. How the calls were made is not given here.

The IC50 is the concentration that inhibits the measured activity by half. Regarding `CN(C(=O)Cc1cccs1)c1nc2c(s1)CCCC2`, the IC50 is 3.16 µM. `CCN1CCN(Cc2nc3ccc([N+](=O)[O-])cc3c(=O)n2-c2ccccc2F)CC1`: the IC50 is > 100 µM (inactive).
